Data from US20060069132A1, “Azolecarboxamide herbicides” (priority 2004, published 2006).

Experiments:
[1] = system: barnyardgrass; experiment: Test A pre-/postemergence herbicide test; type: in vivo, Echinochloa crus-galli
Procedure, shortened: (§1)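 Visual injury scores on a 0–100 scale (100 = complete control) taken about ten days post-treatment in greenhouse against untreated controls; dash means no result. Treatments: preemergence soil spray and postemergence spray to runoff on one- to two-leaf plants 2 to 10 cm tall, surfactant-containing formulation.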

[2] = system: large crabgrass; experiment: Test A pre-/postemergence herbicide test; type: in vivo, Digitaria sanguinalis
Procedure, shortened: as §1

[3] = system: giant foxtail; experiment: Test A pre-/postemergence herbicide test; type: in vivo, Setaria faberi
Procedure, shortened: as §1

[4] = system: morningglory; experiment: Test A pre-/postemergence herbicide test; type: in vivo, Ipomoea spp.
Procedure, shortened: as §1

[5] = system: redroot pigweed; experiment: Test A pre-/postemergence herbicide test; type: in vivo, Amaranthus retroflexus
Procedure, shortened: as §1

[6] = system: velvetleaf; experiment: Test A pre-/postemergence herbicide test; type: in vivo, Abutilon theophrasti
Procedure, shortened: as §1

[7] = system: barnyardgrass; experiment: Test B pre-/postemergence herbicide test; type: in vivo, Echinochloa crus-galli; details: for Plant response rating, Barnyardgrass: preemergence; for Barnyardgrass plant response rating: postemergence, visual rating, scale 0 (no effect) to 100 (complete control)
Procedure, shortened: (§2)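 Response was scored visually 13 to 15 days after treatment against untreated greenhouse controls, 0 meaning no effect and 100 complete control. Formulations (solvent mixture plus surfactant) went onto soil after planting, onto foliage of 1- to 4-leaf plants, and onto 2-leaf plants in a flooded paddy set including rice and barnyardgrass.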

[8] = system: Surinam grass; experiment: Test B pre-/postemergence herbicide test; type: in vivo, Urochloa decumbens; details: for Plant response rating, Surinam Grass: preemergence; for Surinam Grass plant response rating: postemergence, visual rating, scale 0 (no effect) to 100 (complete control)
Procedure, shortened: (§3)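 Seeds were planted and treated preemergence with compounds formulated in a non-phytotoxic solvent mixture containing surfactant, while plants at the 1- to 4-leaf stage (2 to 18 cm) received postemergence sprays. Flooded paddy plants were grown to the 2-leaf stage. After 13 to 15 days in a greenhouse, injury was visually rated 0–100 against untreated controls.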

[9] = system: cocklebur; experiment: Test B pre-/postemergence herbicide test; type: in vivo, Xanthium strumarium; details: for Plant response rating, Cocklebur: preemergence; for Cocklebur plant response rating: postemergence, visual rating, scale 0 (no effect) to 100 (complete control)
Procedure, shortened: as §2

[10] = system: corn; experiment: Test B pre-/postemergence herbicide test; type: in vivo, Zea mays; details: for Plant response rating, Corn: preemergence; for Corn plant response rating: postemergence, visual rating, scale 0 (no effect) to 100 (complete control)
Procedure, shortened: as §3

[11] = system: large crabgrass; experiment: Test B pre-/postemergence herbicide test; type: in vivo, Digitaria sanguinalis; details: for Plant response rating, Crabgrass, Large: preemergence; for Crabgrass, Large plant response rating: postemergence, visual rating, scale 0 (no effect) to 100 (complete control)
Procedure, shortened: as §3

[12] = system: giant foxtail; experiment: Test B pre-/postemergence herbicide test; type: in vivo, Setaria faberi; details: for Plant response rating, Foxtail, Giant: preemergence; for Foxtail, Giant plant response rating: postemergence, visual rating, scale 0 (no effect) to 100 (complete control)
Procedure, shortened: as §3

[13] = system: lambsquarters; experiment: Test B pre-/postemergence herbicide test; type: in vivo, Chenopodium album; details: for Plant response rating, Lambsquarters: preemergence; for Lambsquarters plant response rating: postemergence, visual rating, scale 0 (no effect) to 100 (complete control)
Procedure, shortened: as §3

[14] = system: morningglory; experiment: Test B pre-/postemergence herbicide test; type: in vivo, Ipomoea coccinea; details: for Plant response rating, Morningglory: preemergence; for Morningglory plant response rating: postemergence, visual rating, scale 0 (no effect) to 100 (complete control)
Procedure, shortened: as §2

[15] = system: pigweed; experiment: Test B pre-/postemergence herbicide test; type: in vivo, Amaranthus retroflexus; details: for Plant response rating, Pigweed: preemergence; for Pigweed plant response rating: postemergence, visual rating, scale 0 (no effect) to 100 (complete control)
Procedure, shortened: as §3

[16] = system: rice; experiment: Test B pre-/postemergence herbicide test; type: in vivo, Oryza sativa; details: preemergence, 125 g ai/ha; 0 to 100 scale, 0 is no effect, 100 is complete control
Procedure, shortened: as §3

[17] = system: velvetleaf; experiment: Test B pre-/postemergence herbicide test; type: in vivo, Abutilon theophrasti; details: for Plant response rating, Velvetleaf: preemergence; for Velvetleaf plant response rating: postemergence, visual rating, scale 0 (no effect) to 100 (complete control)
Procedure, shortened: as §3

[18] = system: blackgrass; experiment: Test B postemergence herbicide test; type: in vivo, Alopecurus myosuroides; details: postemergence, visual rating, scale 0 (no effect) to 100 (complete control)
Procedure, shortened: (§4)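 Visual control ratings, 0–100 versus untreated controls, taken after 13 to 15 days in the greenhouse. Blackgrass received a postemergence spray at the 1- to 4-leaf stage (2–18 cm); ducksalad, umbrella sedge and barnyardgrass were flooded-paddy treated at 2 leaves.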

[19] = system: wheat; experiment: Test B postemergence herbicide test; type: in vivo, Triticum aestivum; parameters: key to Wheat plant response rating: 0 = no effect, 100 = complete control; details: postemergence, visual rating, scale 0 (no effect) to 100 (complete control)
Procedure, shortened: (§5)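 Formulated test chemicals went onto postemergence plants measuring 2 to 18 cm, at one to four leaves. For the paddy assay, species had reached two leaves. Scoring took place 13–15 days later by eye, relative to untreated plants, using 0 for no effect up to 100 for full control.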

[20] = system: wild oat; experiment: Test B postemergence herbicide test; type: in vivo, Avena fatua; details: postemergence, visual rating, scale 0 (no effect) to 100 (complete control)
Procedure, shortened: as §5

[21] = system: rice; experiment: Test B flooded paddy test; type: in vivo, Oryza sativa; details: 1000 g ai/ha, visual rating, scale 0 to 100 (0 no effect, 100 complete control), 13 to 15 days
Procedure, shortened: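 Visual ratings, 0 (no effect) to 100 (complete control), made versus controls after 13–15 d greenhouse. Paddy plants treated at 2-leaf stage; postemergence plants at 1- to 4-leaf stage, 2–18 cm tall.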

[22] = system: small flower umbrella sedge; experiment: Test B flooded paddy test; type: in vivo, Cyperus difformis; details: 1000 g ai/ha, visual rating, scale 0 to 100 (0 no effect, 100 complete control), 13 to 15 days
Procedure, shortened: as §4

[23] = system: ducksalad; experiment: Test B flooded paddy test; type: in vivo, Heteranthera limosa; details: 1000 g ai/ha, visual rating, scale 0 to 100 (0 no effect, 100 complete control), 13 to 15 days
Procedure, shortened: as §4

[24] = system: barnyardgrass; experiment: Test B flooded paddy test; type: in vivo, Echinochloa crus-galli; details: 1000 g ai/ha, visual rating, scale 0 to 100 (0 no effect, 100 complete control), 13 to 15 days
Procedure, shortened: as §4

[25] = Postemergence, 500 g ai/ha, 0 to 100 scale, 0 no effect, 100 complete control
[26] = Postemergence, 2000 g ai/ha, 0 to 100 scale, 0 no effect, 100 complete control
[27] = Preemergence, 500 g ai/ha, visual rating, 0 to 100 scale (0 no effect, 100 complete control)
[28] = Preemergence, 2000 g ai/ha, visual rating, 0 to 100 scale (0 no effect, 100 complete control)
[29] = preemergence, 500 g ai/ha, visual injury, 0 to 100 scale (0 no effect, 100 complete control)
[30] = 500 g ai/ha, visual rating 0-100, 0 no effect, 100 complete control
[31] = 125 g ai/ha, 0 to 100 scale, 0 is no effect, 100 is complete control

CC(C)NS(=O)(=O)c1cccc(NC(=O)c2cc(C(C)(C)C)nn2C)c1 [Compound 124]
10: Barnyardgrass plant response rating [1, 28] | Crabgrass, Large plant response rating [2, 25] | Plant response rating, Crabgrass, Large [2, 26] | Velvetleaf plant response rating [6, 25] | Plant response rating, Velvetleaf [6, 26] | Plant response rating, Barnyardgrass [7, 30] | Plant response rating, Surinam Grass [8, 30] | Surinam Grass plant response rating ([8]; 125 g ai/ha) | Cocklebur plant response rating ([9]; 500 g ai/ha) | Corn plant response rating ([10]; 500 g ai/ha) | Crabgrass, Large plant response rating ([11]; 125 g ai/ha) | Crabgrass, Large plant response rating ([11]; 500 g ai/ha) | Plant response rating, Foxtail, Giant [12, 30] | Foxtail, Giant plant response rating ([12]; 500 g ai/ha) | Morningglory plant response rating ([14]; 500 g ai/ha) | Velvetleaf plant response rating ([17]; 500 g ai/ha) | Oat, Wild plant response rating ([20]; 500 g ai/ha)
90: Plant response rating, Pigweed [15, 30]
80: Plant response rating, Lambsquarters [13, 30]
75: Pigweed plant response rating [5, 28]
70: Lambsquarters plant response rating ([13]; 500 g ai/ha) | Pigweed plant response rating ([15]; 500 g ai/ha) | Ducksalad plant response rating [23]
20: Pigweed plant response rating [5, 29] | Surinam Grass plant response rating ([8]; 500 g ai/ha) | Pigweed plant response rating ([15]; 125 g ai/ha)
5: Morningglory plant response rating [4, 25] | Morningglory plant response rating [4, 27]
40: Plant response rating, Pigweed [5, 26]
30: Crabgrass, Large plant response rating [2, 27] | Pigweed plant response rating [5, 25] | Lambsquarters plant response rating ([13]; 125 g ai/ha) | Plant response rating, Pigweed [15, 31]
15: Crabgrass, Large plant response rating [2, 28] | Morningglory plant response rating [4, 28] | Velvetleaf plant response rating [6, 28]
0: Barnyardgrass plant response rating [1, 25] | Plant response rating, Barnyardgrass [1, 26] | Barnyardgrass plant response rating [1, 27] | Foxtail, Giant plant response rating [3, 25] | Plant response rating, Foxtail, Giant [3, 26] | Foxtail, Giant plant response rating [3, 27] | Foxtail, Giant plant response rating [3, 28] | Plant response rating, Morningglory [4, 26] | Velvetleaf plant response rating [6, 29] | Barnyardgrass plant response rating ([7]; 125 g ai/ha) | Barnyardgrass plant response rating ([7]; 500 g ai/ha) | Plant response rating, Barnyardgrass [7, 31] | Plant response rating, Surinam Grass [8, 31] | Plant response rating, Cocklebur [9, 30] | Cocklebur plant response rating ([9]; 125 g ai/ha) | Plant response rating, Cocklebur [9, 31] | Plant response rating, Corn [10, 30] | Corn plant response rating ([10]; 125 g ai/ha) | Plant response rating, Corn [10, 31] | Plant response rating, Crabgrass, Large [11, 30] | Plant response rating, Crabgrass, Large [11, 31] | Foxtail, Giant plant response rating ([12]; 125 g ai/ha) | Plant response rating, Foxtail, Giant [12, 31] | Plant response rating, Lambsquarters [13, 31] | Plant response rating, Morningglory [14, 30] | Morningglory plant response rating ([14]; 125 g ai/ha) | Plant response rating, Morningglory [14, 31] | Plant response rating, Rice [16] | Plant response rating, Velvetleaf [17, 30] | Velvetleaf plant response rating ([17]; 125 g ai/ha) | Plant response rating, Velvetleaf [17, 31] | Blackgrass plant response rating ([18]; 125 g ai/ha) | Blackgrass plant response rating ([18]; 500 g ai/ha) | Wheat plant response rating ([19]; 125 g ai/ha) | Wheat plant response rating ([19]; 500 g ai/ha) | Oat, Wild plant response rating ([20]; 125 g ai/ha) | Rice plant response rating [21] | Sedge, Umbrella plant response rating [22] | Barnyardgrass plant response rating [24]
